PubChem BioAssay AID248 (DTP/NCI, 2004)
“And” between values parts separate entries of the source, which are not always exact repeats. Identical values can stand only once. Inconclusive results and toxic doses are left out. Rule as the data show it: active = T/C of 150% or more; inactive = T/C below 125%.

Test system: L1210 leukemia ip in BDF1 mice, survival T/C
Test: NCI In Vivo Anticancer Drug Screen. Data for tumor model L1210 Leukemia (intraperitoneal) in B6D2F1 (BDF1) mice
Conditions: endpoint: mean survival time, higher = longer survival
Method in brief: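 Ratio derived from survival: compound-dosed mice over vehicle-dosed mice, all bearing a transplantable tumor.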

[1] = dose: 25.0 mg/kg/injection, schedule: Q01DX009 (ip), vehicle: Klucel (hydroxypropylcellulose) (HPC)
[2] = dose: 50.0 mg/kg/injection, schedule: Q01DX009 (ip), vehicle: Klucel (hydroxypropylcellulose) (HPC)
[3] = dose: 100.0 mg/kg/injection, schedule: Q01DX009 (ip), vehicle: Klucel (hydroxypropylcellulose) (HPC)
[4] = dose: 100.0 mg/kg/injection, schedule: Q04DX003 (ip), vehicle: Klucel (hydroxypropylcellulose) (HPC)
[5] = dose: 200.0 mg/kg/injection, schedule: Q01DX009 (ip), vehicle: Klucel (hydroxypropylcellulose) (HPC)
[6] = dose: 200.0 mg/kg/injection, schedule: Q04DX003 (ip), vehicle: Klucel (hydroxypropylcellulose) (HPC)
[7] = dose: 400.0 mg/kg/injection, schedule: Q01DX009 (ip), vehicle: Klucel (hydroxypropylcellulose) (HPC)
[8] = dose: 400.0 mg/kg/injection, schedule: Q04DX003 (ip), vehicle: Klucel (hydroxypropylcellulose) (HPC)
[9] = dose: 100.0 mg/kg/injection, schedule: Q01DX001 (ip), vehicle: saline
[10] = dose: 100.0 mg/kg/injection, schedule: Q01DX009 (ip), vehicle: saline
[11] = dose: 200.0 mg/kg/injection, schedule: Q01DX001 (ip), vehicle: saline
[12] = dose: 200.0 mg/kg/injection, schedule: Q01DX009 (ip), vehicle: saline
[13] = dose: 400.0 mg/kg/injection, schedule: Q01DX001 (ip), vehicle: saline
[14] = dose: 400.0 mg/kg/injection, schedule: Q01DX009 (ip), vehicle: saline
[15] = dose: 100.0 mg/kg/injection, schedule: Q04DX003 (ip), vehicle: saline
[16] = dose: 200.0 mg/kg/injection, schedule: Q04DX003 (ip), vehicle: saline
[17] = dose: 400.0 mg/kg/injection, schedule: Q04DX003 (ip), vehicle: saline
[18] = dose: 100.0 mg/kg/injection, schedule: Q04DX003 (ip), vehicle: saline with Tween-80
[19] = dose: 200.0 mg/kg/injection, schedule: Q04DX003 (ip), vehicle: saline with Tween-80
[20] = dose: 400.0 mg/kg/injection, schedule: Q01DX009 (ip), vehicle: saline with Tween-80
[21] = dose: 400.0 mg/kg/injection, schedule: Q04DX003 (ip), vehicle: saline with Tween-80
[22] = dose: 50.0 mg/kg/injection, schedule: Q01DX009 (ip), vehicle: saline with Tween-80
[23] = dose: 100.0 mg/kg/injection, schedule: Q01DX001 (ip), vehicle: saline with Tween-80

Measured: T/C

COc1cc(C(=Nc2ccccc2)C(=Nc2ccccc2)c2cc(OC)c(OC)c(OC)c2)cc(OC)c1OC
inactive: [1] 98 % of control | [2] 91 % of control | [3] 90 % of control | [4] 100 % of control | [5] 95 % of control and 116 % of control | [6] 97 % of control | [7] 120 % of control | [8] 96 % of control

CC(C)(SCC(N)C(=O)O)C(N)C(=O)O (stereo not drawn)
inactive: [9] 95 % of control | [10] 103 % of control | [11] 90 % of control | [12] 94 % of control | [13] 87 % of control | [14] 102 % of control

O=C(NC(CSC(c1ccccc1)c1ccccc1)C(=O)O)OCc1ccccc1 (stereo not drawn)
inactive: [1] 103 % of control | [2] 100 % of control | [3] 100 % of control and 88 % of control | [4] 93 % of control | [6] 95 % of control | [8] 89 % of control

COc1cccc(NC(=S)N2CCCCC2)c1
inactive: [3] 108 % of control | [5] 116 % of control | [7] 102 % of control

Cc1cc(Cl)ccc1NC(=O)c1ccccc1Cl
inactive: [3] 101 % of control | [15] 109 % of control | [5] 90 % of control | [16] 106 % of control | [7] 89 % of control | [17] 106 % of control

Brc1c(N=Cc2ccccc2)ccc2ccccc12
inactive: dose: 100.0 mg/kg/injection, schedule: Q01DX009 (ip), vehicle: saline with Tween-80 94 % of control | [18] 102 % of control | dose: 200.0 mg/kg/injection, schedule: Q01DX009 (ip), vehicle: saline with Tween-80 87 % of control | [19] 102 % of control | [20] 89 % of control | [21] 89 % of control

CCCSP(C(C)C)C(C)C
inactive: dose: 12.5 mg/kg/injection, schedule: Q04DX003 (ip), vehicle: saline with Tween-80 94 % of control | dose: 25.0 mg/kg/injection, schedule: Q04DX003 (ip), vehicle: saline with Tween-80 94 % of control | dose: 50.0 mg/kg/injection, schedule: Q04DX003 (ip), vehicle: saline with Tween-80 91 % of control

CCOC(=O)c1cc[n+](C)c2ccccc12
inactive: dose: 9.37 mg/kg/injection, schedule: Q01DX009 (ip), vehicle: acetone 101 % of control | dose: 18.75 mg/kg/injection, schedule: Q01DX009 (ip), vehicle: acetone 95 % of control | dose: 37.5 mg/kg/injection, schedule: Q01DX009 (ip), vehicle: acetone 98 % of control | dose: 37.5 mg/kg/injection, schedule: Q04DX003 (ip), vehicle: acetone 92 % of control | dose: 75.0 mg/kg/injection, schedule: Q04DX003 (ip), vehicle: acetone 89 % of control | dose: 150.0 mg/kg/injection, schedule: Q01DX001 (ip), vehicle: acetone 89 % of control

CCOc1ccc(NC(=O)CCCCCCCCC(=O)Nc2ccc(OCC)cc2)cc1
inactive: [22] 98 % of control | [23] 96 % of control | dose: 100.0 mg/kg/injection, schedule: Q04DX002 (ip), vehicle: saline with Tween-80 95 % of control and 110 % of control | [18] 88 % of control | dose: 200.0 mg/kg/injection, schedule: Q01DX001 (ip), vehicle: saline with Tween-80 91 % of control | dose: 200.0 mg/kg/injection, schedule: Q04DX002 (ip), vehicle: saline with Tween-80 100 % of control and 89 % of control | [19] 96 % of control | dose: 400.0 mg/kg/injection, schedule: Q01DX001 (ip), vehicle: saline with Tween-80 88 % of control | [20] 100 % of control and 108 % of control | dose: 400.0 mg/kg/injection, schedule: Q04DX002 (ip), vehicle: saline with Tween-80 94 % of control and 97 % of control | [21] 91 % of control

Cc1c([N+](=O)[O-])cc(C(C)(C)C)c(OC(=O)C(Cl)(Cl)Cl)c1[N+](=O)[O-]
inactive: dose: 100.0 mg/kg/injection, schedule: Q04DX002 (ip), vehicle: Klucel (hydroxypropylcellulose) (HPC) 95 % of control | dose: 200.0 mg/kg/injection, schedule: Q04DX002 (ip), vehicle: Klucel (hydroxypropylcellulose) (HPC) 91 % of control

CCOC(=O)CN1C(C)C1C(C)C (stereo not drawn)
inactive: [4] 114 % of control | [6] 100 % of control | [8] 104 % of control

CN1C2CCC(O)C1CC2 (stereo not drawn)
inactive: [9] 102 % of control | [11] 102 % of control

O=Nc1ccc(O)cc1Cl
inactive: dose: 100.0 mg/kg/injection, schedule: Q01DX001 (ip), vehicle: Klucel (hydroxypropylcellulose) (HPC) 103 % of control and 88 % of control | dose: 200.0 mg/kg/injection, schedule: Q01DX001 (ip), vehicle: Klucel (hydroxypropylcellulose) (HPC) 117 % of control | dose: 400.0 mg/kg/injection, schedule: Q01DX001 (ip), vehicle: Klucel (hydroxypropylcellulose) (HPC) 95 % of control and 103 % of control

NC(N)=NCCc1ccc(Cl)cc1
inactive: dose: 50.0 mg/kg/injection, schedule: Q01DX001 (ip), vehicle: Klucel (hydroxypropylcellulose) (HPC) 102 % of control

c1ccc2c3nc4ccccc4c-3scc2c1
inactive: dose: 100.0 mg/kg/injection, schedule: Q01DX001 (ip), vehicle: acetone 100 % of control | dose: 200.0 mg/kg/injection, schedule: Q01DX001 (ip), vehicle: acetone 103 % of control

COC(=O)C1CC(C)(C)N(C)C1(C)C (stereo not drawn)
inactive: [3] 101 % of control | [4] 100 % of control | [5] 106 % of control and 92 % of control | [6] 103 % of control

O=C(O)c1ccc(SCc2ccccc2)cc1
inactive: [3] 103 % of control | [5] 101 % of control | [7] 93 % of control

O=C(Nc1ccc(NC2=NCCN2)cc1)c1ccc(C(=O)Nc2ccc(NC3=NCCN3)cc2)c([N+](=O)[O-])c1
inactive: dose: 1.88 mg/kg/injection, schedule: Q01DX Z (ip), vehicle: saline 92 % of control | dose: 3.75 mg/kg/injection, schedule: Q01DX Z (ip), vehicle: saline 97 % of control | dose: 7.5 mg/kg/injection, schedule: Q01DX Z (ip), vehicle: saline 106 % of control | dose: 7.5 mg/kg/injection, schedule: Q01DX Z (oral), vehicle: saline 94 % of control | dose: 15.0 mg/kg/injection, schedule: Q01DX Z (ip), vehicle: saline 110 % of control and 89 % of control | dose: 15.0 mg/kg/injection, schedule: Q01DX Z (oral), vehicle: saline 95 % of control | dose: 30.0 mg/kg/injection, schedule: Q01DX Z (oral), vehicle: saline 91 % of control | dose: 60.0 mg/kg/injection, schedule: Q01DX Z (oral), vehicle: saline 100 % of control

O=c1c(Br)c(-c2ccccc2)nc2ccccn12
inactive: dose: 25.0 mg/kg/injection, schedule: Q01DX001 (ip), vehicle: saline with Tween-80 91 % of control | dose: 50.0 mg/kg/injection, schedule: Q01DX001 (ip), vehicle: saline with Tween-80 91 % of control | [23] 95 % of control

N#CCc1cn(-c2ccccc2)nn1
inactive: dose: 9.38 mg/kg/injection, schedule: Q01DX001 (ip), vehicle: other 101 % of control | dose: 18.75 mg/kg/injection, schedule: Q01DX001 (ip), vehicle: other 96 % of control | dose: 37.5 mg/kg/injection, schedule: Q01DX001 (ip), vehicle: other 97 % of control

Nc1ccc(C(=O)O)c([N+](=O)[O-])c1
inactive: [10] 102 % of control | [15] 98 % of control | [12] 100 % of control | [16] 93 % of control | [14] 100 % of control | [17] 94 % of control

CCOC(=O)C(CCNC(=O)c1ccccc1)C(=O)OCC
inactive: [3] 103 % of control | [4] 93 % of control | [5] 91 % of control | [6] 95 % of control | [7] 89 % of control | [8] 93 % of control

Cc1ccc(/C=C(\C#N)C(=O)O)cc1
inactive: dose: 12.5 mg/kg/injection, schedule: Q01DX009 (ip), vehicle: saline with Tween-80 94 % of control | dose: 25.0 mg/kg/injection, schedule: Q01DX009 (ip), vehicle: saline with Tween-80 94 % of control | [22] 100 % of control and 88 % of control

CCCCCCCCC[As](=O)(O)CCCCCCCCC
inactive: dose: 50.0 mg/kg/injection, schedule: Q01DX001 (ip), vehicle: saline 101 % of control | [9] 98 % of control | [11] 98 % of control | [13] 101 % of control
